Experimental data: patent publication US20250263404A1, “AMINOPYRIDINES AS ACTIVATORS OF PI3 KINASE” (UCL Business Ltd, priority 2021, published 2025)

Legend:
PI3Kα-WT MEFs = test: Cell number by crystal violet staining in MEFs; format: cell-based, mouse; conditions: 72 h
Procedure: MEFs were seeded at 5000 cells per well in 96-well plates in DMEM supplemented with 10% FBS and 1% P/S, and allowed to attach overnight. The next day, cells were serum-starved for 5 h prior to compound addition in fresh serum-free DMEM. After different time points, cells were rapidly washed with distilled H2O before fixed and stained in a solution of 0.5% crystal violet (Sigma-Aldrich cat #C0775) in 20% methanol (v:v) as described (Feoktistova, M. et al. Cold Spring Harb Protoc 2016, pdb prot087379 (2016). Briefly, after 20 min incubation at room temperature on a rocking platform, fixed and stained cells were washed 3 times with distilled H2O and plates air-dried overnight. 200 μl methanol was next added to each well and the plates were incubated at room temperature for 20 min on a bench rocker, followed by measurement of optical density at 570 with a plate reader.

[1] = system: exposed rat sciatic nerves; test: pAKT induction in exposed rat sciatic nerves; format: in vivo; conditions: direct injection or bathing, 5 μM
Procedure: Stimulated by these observations, we next tested 1938 in the sciatic nerve crush model in the rat, an in vivo model of peripheral nerve injury and regeneration. […] Immediately after the nerve crush (FIG. 5e, i-ii), 1938 was delivered via a single intraneural injection into the proximal crush site (FIG. 5e, iii) and via a minipump implanted adjacent to the nerve (FIG. 5e, iv), loaded with 1938 solution, for continuous delivery for the duration of the experiment. Analyses were conducted 3 weeks after injury.
Test experiment to assess if 1938 could induce pAkt generation in exposed rat sciatic nerves, adult male Sprague Dawley rats (>250 g; n=2) were anaesthetised using isoflurane, the left leg sciatic nerve was exposed and injected with 2 μl vehicle (sterile dH2O) or 1938 (5 μM in sterile dH2O). Meanwhile the sciatic nerve of the right leg was exposed and bathed in 250 μl of vehicle (sterile dH2O) or 1938 (5 μM in sterile dH2O). Each animal received one vehicle and one compound treatment. The treatments were left on for 30 min prior to washing the bathed nerves with sterile PBS and culling via sodium pentobarbital injection according to local regulations, the animal by schedule 1. Nerves were then harvested, washed in fresh 4° C. PBS and stored in a fresh vial before snap freezing in liquid nitrogen. […]

[2] = system: PIP3 production in A549 cells; test: TIRF microscopy of PIP3 reporter in A549 cells; format: cell-based, human
From the text: Class I PI3Ks convert the PtdIns(4,5)P2 lipid in the plasma membrane to PtdIns(3,4,5)P3 (or PIP3) which is converted to PtdIns(3,4)P2 by the action of 5-phosphatases. The inventors therefore tested whether stimulation of cells with 1938 led to the generation of PIP3 and PI(3,4)P2 using live imaging in cells expressing fluorescent biosensors that selectively bind these lipids. […] This PIP3 peak was followed by the generation of membrane-associated PI(3,4)P2 (FIG. 3aiii), with a timing in line with the known mechanism of cellular generation of PI(3,4)P2 from PIP3 by the action of 5-phosphatases. Similar kinetics of PIP3 and PI(3,4)P2 production have previously been reported in HeLa cells stimulated with insulin. […]
Image analyses of total reporter intensities were performed with the Fiji open source image analysis package. The region of interest (ROI) corresponding to the footprint of the individual cell across time points were defined using minimal intensity projection to select only pixels present across all time points, following prior subtraction of camera noise (rolling ball method, radius=500 pixels) and xy drift correction, intensity levels over time were measured. […] All other quantifications were performed using the open source software R/RStudio. […]

CCN1CCN(c2ccc(Nc3cc(Nc4cccc5c4N(C(C)=O)CC5)ccn3)cc2)CC1 [Example 1938]
cell number (crystal violet staining) (PI3Kα-WT MEFs): an increase in cell number | pAKT in sciatic nerve [1]: induction of pAKT | PIP3 signal in PIK3CA-null A549 cells ([2]; PIK3CA-null A549 cells): did not increase | time to plasma membrane-associated PIP3 production ([2]; serum-starved A549 cells): less than 3 min
